Laboratory results as given in patent US20250361230A1, “LATS Inhibitors and Uses Thereof” (The USA, as Represented by the Secretary, Dept. of Heath …, priority 2022, published 2025).

Key:
Format in all cases: biochemical
LATS1 = target: T1, LATS1 (Homo sapiens, UniProt O95835); assay: RBC HotSpot kinase assay (33P-ATP, P81 filter-binding), LATS1; settings: Table 28, biochemical kinase assay; read-out: LATS1 IC50
T1 sequence (O95835 1-1130): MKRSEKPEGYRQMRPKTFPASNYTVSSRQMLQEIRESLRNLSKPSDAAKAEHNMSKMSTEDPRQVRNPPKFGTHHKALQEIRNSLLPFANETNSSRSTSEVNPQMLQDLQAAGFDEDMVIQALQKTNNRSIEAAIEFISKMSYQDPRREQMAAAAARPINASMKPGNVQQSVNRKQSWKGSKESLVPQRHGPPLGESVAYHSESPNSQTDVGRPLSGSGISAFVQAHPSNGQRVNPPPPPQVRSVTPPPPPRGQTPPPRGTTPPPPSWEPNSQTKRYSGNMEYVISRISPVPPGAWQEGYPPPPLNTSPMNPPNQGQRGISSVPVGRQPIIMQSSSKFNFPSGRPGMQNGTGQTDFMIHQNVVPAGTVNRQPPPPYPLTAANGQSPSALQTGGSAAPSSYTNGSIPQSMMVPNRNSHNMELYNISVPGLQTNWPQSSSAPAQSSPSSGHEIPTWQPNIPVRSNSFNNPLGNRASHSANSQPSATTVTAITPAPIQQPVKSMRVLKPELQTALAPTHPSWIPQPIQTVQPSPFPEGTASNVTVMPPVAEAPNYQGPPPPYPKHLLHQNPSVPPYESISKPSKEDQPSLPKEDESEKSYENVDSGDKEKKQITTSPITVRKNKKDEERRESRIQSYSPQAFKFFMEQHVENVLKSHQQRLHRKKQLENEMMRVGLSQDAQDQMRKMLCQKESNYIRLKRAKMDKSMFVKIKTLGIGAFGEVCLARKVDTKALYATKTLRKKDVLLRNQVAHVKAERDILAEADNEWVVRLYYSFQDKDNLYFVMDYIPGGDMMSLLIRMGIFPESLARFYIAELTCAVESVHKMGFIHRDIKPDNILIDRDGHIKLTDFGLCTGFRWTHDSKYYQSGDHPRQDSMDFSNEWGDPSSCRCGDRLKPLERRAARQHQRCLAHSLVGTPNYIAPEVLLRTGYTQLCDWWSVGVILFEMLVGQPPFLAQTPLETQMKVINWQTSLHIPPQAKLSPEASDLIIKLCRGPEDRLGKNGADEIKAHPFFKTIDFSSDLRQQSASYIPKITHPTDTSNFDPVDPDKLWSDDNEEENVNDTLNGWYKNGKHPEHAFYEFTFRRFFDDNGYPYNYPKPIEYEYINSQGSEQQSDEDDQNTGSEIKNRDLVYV
Method in brief: (§1)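 Substrate in fresh buffer receives cofactors, then kinase, then compound in DMSO for a 20 min room-temperature preincubation. Reactions start with 33P-ATP and run 2 h; phosphorylation is read by P81 filter binding, and IC50 comes from a 10-point curve.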

LATS2 = target: T2, LATS2 (Homo sapiens, UniProt Q9NRM7); assay: RBC HotSpot kinase assay (33P-ATP, P81 filter-binding), LATS2; settings: Table 28, biochemical kinase assay; read-out: LATS2 IC50
T2 sequence (Q9NRM7 1-1088): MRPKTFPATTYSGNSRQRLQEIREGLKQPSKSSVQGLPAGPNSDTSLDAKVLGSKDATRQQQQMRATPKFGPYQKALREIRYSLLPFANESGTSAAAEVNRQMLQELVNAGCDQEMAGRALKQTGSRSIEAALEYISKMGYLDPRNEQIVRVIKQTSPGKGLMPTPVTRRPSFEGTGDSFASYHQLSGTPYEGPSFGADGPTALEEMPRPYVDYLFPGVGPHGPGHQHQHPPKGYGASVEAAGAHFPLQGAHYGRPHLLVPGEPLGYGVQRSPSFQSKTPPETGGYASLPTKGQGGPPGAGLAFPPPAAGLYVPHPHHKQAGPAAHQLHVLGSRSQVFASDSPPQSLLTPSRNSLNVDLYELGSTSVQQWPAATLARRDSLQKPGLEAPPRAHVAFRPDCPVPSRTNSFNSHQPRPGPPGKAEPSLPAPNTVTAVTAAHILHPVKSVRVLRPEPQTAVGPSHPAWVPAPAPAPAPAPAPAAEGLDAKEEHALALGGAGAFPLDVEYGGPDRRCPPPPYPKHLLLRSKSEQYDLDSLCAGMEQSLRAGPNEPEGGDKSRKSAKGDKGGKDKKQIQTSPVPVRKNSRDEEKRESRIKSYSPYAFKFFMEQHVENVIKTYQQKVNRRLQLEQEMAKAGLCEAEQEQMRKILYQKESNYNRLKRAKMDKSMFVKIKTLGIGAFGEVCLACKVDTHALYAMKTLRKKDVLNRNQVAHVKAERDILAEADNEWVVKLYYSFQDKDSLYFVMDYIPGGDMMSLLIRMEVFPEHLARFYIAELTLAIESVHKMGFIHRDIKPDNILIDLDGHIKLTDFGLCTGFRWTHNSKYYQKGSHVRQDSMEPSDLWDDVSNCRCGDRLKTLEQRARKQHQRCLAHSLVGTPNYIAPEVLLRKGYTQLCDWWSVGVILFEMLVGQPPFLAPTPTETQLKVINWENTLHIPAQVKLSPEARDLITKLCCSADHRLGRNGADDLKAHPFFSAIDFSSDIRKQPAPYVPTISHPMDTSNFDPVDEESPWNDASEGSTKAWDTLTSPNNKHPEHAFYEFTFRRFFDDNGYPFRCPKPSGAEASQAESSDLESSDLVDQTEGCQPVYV
Method in brief: as §1

AKT = AKT (Homo sapiens, UniProt P31749); assay: RBC HotSpot kinase assay (33P-ATP, P81 filter-binding), AKT; settings: Table 28, biochemical kinase assay; read-out: AKT IC50
Method in brief: as §1

Chain of AKT (P31749 whole entry): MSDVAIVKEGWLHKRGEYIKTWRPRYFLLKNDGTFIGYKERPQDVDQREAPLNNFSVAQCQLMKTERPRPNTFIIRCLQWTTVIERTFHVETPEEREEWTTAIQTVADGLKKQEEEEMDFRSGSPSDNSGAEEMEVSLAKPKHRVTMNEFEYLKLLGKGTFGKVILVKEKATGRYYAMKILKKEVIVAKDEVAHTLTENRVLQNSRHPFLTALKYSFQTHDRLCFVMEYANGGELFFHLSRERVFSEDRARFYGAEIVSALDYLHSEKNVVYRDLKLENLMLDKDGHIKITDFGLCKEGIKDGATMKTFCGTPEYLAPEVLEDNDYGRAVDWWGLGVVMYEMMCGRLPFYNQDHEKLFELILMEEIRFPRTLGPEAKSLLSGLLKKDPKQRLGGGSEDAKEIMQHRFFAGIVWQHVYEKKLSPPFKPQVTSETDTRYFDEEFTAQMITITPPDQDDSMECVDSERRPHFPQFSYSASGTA

IC50 (LATS1) | IC50 (LATS2) | IC50 (AKT) | SMILES
2080 nM | 4250 nM | > 10000 nM | Cc1cc(-c2ccnc3[nH]cc(F)c23)ncc1[C@@]1(O)[C@H](C)CN(C2CCS(=O)(=O)CC2)C[C@@H]1C [Compound 51, 4-((3R,4s,5S)-4-(6-(3-fluoro-1H-pyrrolo[2,3-b]pyridin-4-yl)-4-methylpyridin-3-yl)-4-hydroxy-3,5-dimethylpiperidin-1-yl)tetrahydro-2H-thiopyran 1,1-dioxide]
2.5 nM | 2.3 nM | 51 nM | Cc1cc(-c2ccnc3[nH]cc(F)c23)ccc1[C@@]1(O)[C@H](C)CN(C2CCC2)C[C@@H]1C [Compound 54, (3R,4s,5S)-1-cyclobutyl-4-(4-(3-fluoro-1H-pyrrolo[2,3-b]pyridin-4-yl)-2-methylphenyl)-3,5-dimethylpiperidin-4-ol]
9 nM | 12.1 nM | 62.8 nM | Cc1cc(-c2ccnc3[nH]cc(F)c23)ccc1[C@@]1(O)[C@H](C)CN(C2CCS(=O)(=O)CC2)C[C@@H]1C [Compound 55, 4-((3R,4s, 5S)-4-(4-(3-fluoro-1H-pyrrolo[2,3-b]pyridin-4-yl)-2-methylphenyl)-4-hydroxy-3,5S-dimethylpiperidin-1-yl)tetrahydro-2H-thiopyran 1,1-dioxide]
22 nM | 11.1 nM | 621 nM | C[C@@H]1CN(C(=O)CN)C[C@H](C)[C@@]1(O)c1c(F)cc(-c2ccnc3[nH]cc(F)c23)cc1F [Compound 58]
8.3 nM | 6.7 nM | 49.2 nM | Cc1cc(-c2ccnc3[nH]cc(F)c23)ccc1[C@@]1(O)[C@H](C)CN(C(=O)CN)C[C@@H]1C [Compound 60, 2-amino-1-((3R,4s,5S)-4-(4-(3-fluoro-1H-pyrrolo[2,3-b]pyridin-4-yl)-2-methylphenyl)-4-hydroxy-3,5-dimethylpiperidin-1-yl)ethan-1-one]
2.5 nM | 2.9 nM | 323 nM | C[C@@H]1CN(CC(N)=O)C[C@H](C)[C@@]1(O)c1c(F)cc(-c2ccnc3[nH]cc(F)c23)cc1F [Compound 88, 2-((3R,4s,5S)-4-(2,6-difluoro-4-(3-fluoro-1H-pyrrolo[2,3-b]pyridin-4-yl)phenyl)-4-hydroxy-3,5-dimethylpiperidin-1-yl)acetamide]
4.9 nM | 4.6 nM | 100 nM | C[C@@H]1CN(C2CCNCC2)C[C@H](C)[C@@]1(O)c1c(F)cc(-c2ccnc3[nH]cc(F)c23)cc1F [Compound 90, (3R,4s,5S)-4-(2,6-difluoro-4-(3-fluoro-1H-pyrrolo[2,3-b]pyridin-4-yl)phenyl)-3,5-dimethyl-[1,4′-bipiperidin]-4-ol]
22 nM | 22 nM | 1100 nM | OC1(c2ccc(-c3ccnc4[nH]ccc34)cc2)CCNCC1 [Compound 111, 4-(4-(1H-pyrrolo[2,3-b]pyridin-4-yl)phenyl)piperidin-4-ol]
5.9 nM | 9 nM | 698 nM | Cc1cc(-c2ccnc3[nH]cc(F)c23)cc(F)c1C1(O)CC2(CN(C3COC3)C2)C1 [Compound 139, 6-(2-fluoro-4-(3-fluoro-1H-pyrrolo[2,3-b]pyridin-4-yl)-6-methylphenyl)-2-(oxetan-3-yl)-2-azaspiro[3.3]heptan-6-ol]
7.8 nM | 4.4 nM | 1350 nM | O=C([C@H]1CCCN1)N1CCC(O)(c2ccc(-c3ccnc4[nH]cc(F)c34)cc2)CC1 [Compound 142]
9.6 nM | 19 nM | 715 nM | Fc1c[nH]c2nccc(-c3ccc(C4CCNCC4)c(Cl)c3)c12 [Compound 172, 4-(3-chloro-4-(piperidin-4-yl)phenyl)-3-fluoro-1H-pyrrolo[2,3-b]pyridine]
7.2 nM | 8 nM | 330 nM | Clc1c[nH]c2nccc(-c3ccc(C4CCNCC4)cc3)c12 [Compound 173, 3-chloro-4-(4-(piperidin-4-yl)phenyl)-1H-pyrrolo[2,3-b]pyridine]
11 nM | 14 nM | 684 nM | Cc1cc(-c2ccnc3[nH]ccc23)ccc1C1CCNCC1 [Compound 177, 4-(3-methyl-4-(piperidin-4-yl)phenyl)-1H-pyrrolo[2,3-b]pyridine]
25 nM | 50 nM | 940 nM | c1cc(-c2ccc(C3CC4CCC(C3)N4)cc2)c2cc[nH]c2n1 (stereo not drawn) [Compound 184, 4-(4-(8-azabicyclo[3.2.1]octan-3-yl)phenyl)-1H-pyrrolo[2,3-b]pyridine]
66.1 nM | 62.6 nM | 1440 nM | CC1CC(c2ccc(-c3ccnc4[nH]ccc34)cc2)CC(C)N1 (stereo not drawn) [Compound 187, 4-(4-(2,6-dimethylpiperidin-4-yl)phenyl)-1H-pyrrolo[2,3-b]pyridine]
59 nM | 43 nM | 200 nM | CC1(c2ccc(-c3ccnc4[nH]ccc34)cc2)CCNCC1 [Compound 201, 4-(4-(4-methylpiperidin-4-yl)phenyl)-1H-pyrrolo[2,3-b]pyridine]

SMILES | IC50 (LATS1) | IC50 (LATS2) | IC50 (AKT)
Cc1cc(-c2ccnc3[nH]cc(F)c23)cc(F)c1[C@@]1(O)[C@H](C)CN(C2CCS(=O)(=O)CC2)C[C@@H]1C [Compound 57, 4-((3R,4s,5S)-4-(2-fluoro-4-(3-fluoro-1H-pyrrolo[2,3-b]pyridin-4-yl)-6-methylphenyl)-4-hydroxy-3,5-dimethylpiperidin-1-yl)tetrahydro-2H-thiopyran 1,1-dioxide] | 4.4 nM | 5.3 nM | 374 nM
Cc1cc(-c2ccnc3[nH]cc(F)c23)cc(F)c1[C@@]1(O)[C@H](C)CN(C(=O)CN)C[C@@H]1C [Compound 61, 2-amino-1-((3R,4s,5S)-4-(2-fluoro-4-(3-fluoro-1H-pyrrolo[2,3-b]pyridin-4-yl)-6-methylphenyl)-4-hydroxy-3,5-dimethylpiperidin-1-yl)ethan-1-one] | 3.2 nM | 3.2 nM | 197 nM
OC1(c2ccc(-c3ccnc4[nH]cc(F)c34)cc2)CCNCC1 [Compound 110, 4-(4-(3-fluoro-1H-pyrrolo[2,3-b]pyridin-4-yl)phenyl)piperidin-4-ol] | 5.7 nM | 2.9 nM | 490 nM
Fc1c[nH]c2nccc(-c3ccc(C4CCNCC4)cc3)c12 [Compound 169, 3-fluoro-4-(4-(piperidin-4-yl)phenyl)-1H-pyrrolo[2,3-b]pyridine] | 15 nM | 14 nM | 1180 nM
